The results in this text go back to patent publication US20100249184A1, “INDUCTION AND/OR MAINTENANCE OF TUMOR DORMANCY BY DISRUPTION OF UROKINASE PLASMINOGEN ACTIVATOR RECEPTOR-INTEGRIN INTERACTION” (MOUNT SINAI SCHOOL OF MEDICINE, priority 2007, published 2010).

One assay relates to HEK293 cells. The experiment in a line: Adhesion assay to fibronectin, transfected HEK293 cells. The format is cell-based. Particulars: HEK293-uPAR^wt cells; peptide 20 or 200 μM, 15 min. As for the experimental part:
HEK293 cells transiently transfected with pcDNA3.1, or expression constructs for uPAR^wt or uPAR^S245A were detached 40 hrs after transfection and 1.5×10^5 cells were seeded on fibronectin (4 μg/ml in a 48-well plate) for 15 and 30 min at 37° C. Cell adhesion was quantified as described in the Examples. The results shown are mean (SD) of 2 individual experiments, 4 determinations for each cell type. Two additional experiments were performed with similar results. […] The cells were divided into 2 aliquots and one aliquot was incubated for 10 min with anti-uPAR(R^2) antibody (10 μg/ml). Cells (1.2×10^5) were seeded onto wells of a 48-well plate and the adhesion to fibronectin tested as in FIG. 4A. The results are mean (SD) of 6 determinations. […] Cells were seeded onto 96-well plates and adhesion to fibronectin tested as in FIG. 4A. The results are mean (SD) of 3 determinations for each peptide. The experiment was repeated twice.
HEK293 cells were transiently transfected with pcDNA3.1, uPAR^wt, or uPAR^S245A. […] Following 15 and 30 min incubation at 37° C., the cells were washed twice with PBS with CaCl2 and MgCl2, fixed with 1% glutaraldehyde, stained with 1% crystal violet for 10 min, washed, dried, destained with 10% methanol and 5% acetic acid, and the OD of the extracted dye was measured in triplicate using the ELISA microplate-reader ELX800 from Bio-Tek Instruments. […]

In the next assay the test system is T-HEp3 cells. Put plainly: P-ERK/ERK Western blotting after peptide treatment. Type of assay: cell-based, human. The source says: FIGS. 6A-E show ERK activation and growth in vivo. In FIG. 6A, HEK293 and D-Hep3 cells transfected with uPAR^wt produces stronger activation of ERK than cells transfected with uPAR^S245A or with vector (top and middle panels); HEK293, and D-HEp3 cells, transiently transfected with pcDNA3.1 vector, or with an expression construct for uPAR^wt or uPAR^S245A lysed 48 hrs later and analyzed by Western blotting for phospho-ERK (FIG. 6A, top panels) and ERK 1/2 (FIG. 6A, middle panels) with specific antibodies. The bands were scanned with NIH Image and plotted. The ratio of phospho-ERK to ERK was calculated and expressed as a fraction of the ratio of pcDNA3.1 transfected cells. In FIG. 6A (bottom panels), uPAR^wt and uPAR^S245A expression was determined by Western blotting. […] D-HEp3 cells transfected with vector, or uPAR^wt or uPAR^S245A were detached with EDTA 36 hrs after transfection and 7×10^5 cells in 30 μl PBS were inoculated onto chorioallantoic membranes (“CAMs”) of 10-day old chick embryos. Each sample was inoculated onto 4 CAMs. The CAMs were excised 4 days later and the number of tumor cells was determined as in the Examples. The bars show mean and standard deviation. Paired t-test vector/uPAR^S245A p=0.76, vector/uPAR^wt p=0.0005, uPAR^S245/uPAR^wt p=0.0002. Inset: uPAR expression detected by Western blot with R2 antibody. In FIG. 6C, peptide 240-248, but not peptide 17-24, down regulates P-ERK level. T-HEp3 cells were serum-starved and treated in serum-free medium with 25 μM of peptides 240-248 and 17-24 for 45 min and 3 hrs. The cells were lysed and the lysates were analyzed for P-ERK (FIG. 6C, upper panel) and total ERK (FIG. 6C, lower panel) by Western blotting. FIG. 6D is a graph showing that S245A mutant peptide has no effect on ERK activation. T-HEp3 cells were treated with 5, 20, and 40 μM peptides 240-248 ([…]), 17-24 (▪), and S245A (▾) for 1 hr. The cells were processed as in FIG. 6C, except that the bands were scanned by NIH Image the P-ERK/ERK ratio was calculated. […] Sub-confluent T-ELK:GFP cells grown in 48-well plate and serum-starved overnight were incubated with the uPAR peptides 240-248 at 5 and 25 μM and with 17-24 peptide at 25 μM for 40 hrs at 37° C. in serum-free medium. The cells were detached and analyzed for GFP in FACS Canto using FACSDiva software. The numbers represent GFP-positive cells as percent of total. The dose-response for peptide 240-248 and highest concentration of peptides 17-24 and S245A were repeated two additional times with similar results.
To test the effect of uPAR/integrin inhibiting peptides on ERK activity, T-HEp3 cells transfected with two plasmids that report through GFP level on the state of ERK activation and designated T-ELK (Aguirre-Ghiso et al., Cancer Res. 63:1684-1695 (2003), which is hereby incorporated by reference in its entirety) were plated in 48-well plates, serum-starved overnight, and treated (in duplicates) with 5 and 25 μM of uPAR-derived synthetic peptides (240-248) or 25 μM (17-24) in DMEM for 42 hrs. Untreated cells served as positive control and cells not expressing GFP as negative control. The cells were detached and analyzed for GFP by FACS analysis using FACS Canto (Becton Dickinson, Calif.) and FACSDiva software. Alternatively, T-HEp3 cells, serum-starved overnight were incubated in serum-free medium with 5, 20, and 40 μM of uPAR-derived synthetic peptide 240-248, 17-24, or S245A for 1 hr or with 25 μM peptide 240-248 and 17-24 for 10 min, 45 min, and 3 hrs at 37° C. The cells were lysed in RIPA buffer and processed as described above. Concentration dependence of P-ERK inhibition was analyzed by scanning P-ERK and ERK bands with NIH-Image and expressing their ratios as % of the ratio in untreated control (T-HEp3) cells.

Where [1] appears, read: 25 μM peptide, 45 and 180 min, serum-starved.
Where [2] appears, read: 25 μM peptide, 10 min, serum-starved.

As for “peptide 17-24: synthetic uPAR-derived peptide, domain I amino acid 17-24: CALGQDLC (SEQ ID NO:5); negative control [reference compound]”, the adhesion to fibronectin result in the assay on HEK293 cells is given as “no effect”. The P-ERK level entry in the assay with T-HEp3 cells (setting [1]) was “minimal or no effect”; with T-HEp3 cells (setting [2]), “only a minor effect”; in the assay with T-HEp3 cells (5, 20 and 40 μM peptide, 1 hr), “minor and inconsistent effects”.
Turning to “peptide 240-248: synthetic uPAR-derived peptide, domain III residues 240-248: GCATASMCQ (SEQ ID NO:9)”, the adhesion to fibronectin entry in the assay on HEK293 cells is “reduced adhesion to fibronectin”. Further, the P-ERK level result with T-HEp3 cells (setting [1]) is given as “strong reduction in P-ERK level”; in the assay on T-HEp3 cells (setting [2]), “only a minor effect”; in the assay with T-HEp3 cells (5, 20 and 40 μM peptide, 1 hr), “reduced P-ERK level in a dose-dependent fashion”.
